Measurements taken from patent US12377176B2, “Cancer diagnostic imaging agents” (Technische Universität München, priority 2019, dated 2025).
Several values for one entry are separate records, joined by “and”; a condition that tells them apart may be missing. Equal values may be shown once. Read-outs that look alike come from different tables or passages of the source.

Assays:
[1] = biological target: T1, HSA (Homo sapiens, UniProt P02768); assay: HSA binding on Chiralpak HSA column; assay type: in vitro ADME; conditions: for HSA Binding: Chiralpak HSA column (50 × 3 mm, 5 μm), (n = 6); for Log K HSA: logarithmic K of human serum albumin binding, calibration reference
T1 construct: purchased H13H-2433
Procedure: The mobile phase (A: NH4OAc, 50 mM in water, pH 7 and B: isopropanol) was freshly prepared for each experiment and only used for one day. The column was kept at room temperature and each run was stopped after detection of the signal to reduce the acquisition time. All substances were dissolved in a 0.5 mg/ml concentration in 50% 2-propanol and 50% 50 mM pH 6.9 ammonium acetate buffer. […] All nine reference substances were injected consecutively to establish a non-linear regression with Origin Pro 2016G.

[2] = biological target: T2, PSMA (Homo sapiens, UniProt Q04609); assay: Determination of IC50: PSMA affinity, competition with ([125I]I-BA)KuE on LNCaP cells; assay type: binding
T2 construct: endogenous in cells; host or cells: LNCaP cells
Procedure: After removal of the culture medium, the cells were treated once with 500 μL of HBSS (Hank's balanced salt solution, Biochrom, Berlin, Germany, with addition of 1% bovine serum albumin (BSA)) and left 15 min on ice for equilibration in 200 μL HBSS (1% BSA). […] Quantification of bound and free radioligand was accomplished in a γ-counter.

[3] = system: LNCaP tumor-bearing CB-17 SCID mice; conditions: male, mouse, in vivo, 1 h
Procedure: To establish tumor xenografts, LNCaP cells (10^7 cells/200 μL) were suspended in a 1:1 mixture (v/v) of Dulbecco modified Eagle medium/Nutrition Mixture F-12 with Glutamax-I (1:1) and Matrigel (BD Biosciences, Germany), and inoculated subcutaneously onto the right shoulder of 6-8 weeks old CB17-SCID mice (Charles River, Sulzfeld, Germany). Mice were used for when tumors had grown to a diameter of 5-8 mm (3-4 weeks after inoculation).
Approximately 1-2 MBq (<0.2 nmol) of the ^18F-labeled PSMA inhibitor was injected into the tail vein of LNCaP tumor-bearing male CB-17 SCID mice and sacrificed after 1 h post injection (n=4-5). Selected organs were removed, weighted and measured in a γ-counter

[4] = system: LNCaP cells; assay: Internalization into LNCaP cells, relative to ([125I]I-BA)KuE; assay type: cell-based; conditions: for internalization rate Mean / individual internalization rates: LNCaP cells, 1 h, 37 °C, c=0.5 nM; for individual internalization rates: single measurements
Procedure: Data is corrected for non-specific binding ([…]) and expressed as mean±SD (n=3).
Subsequent to the removal of the culture medium, the cells were washed once with 500 μL DMEM-F12 (5% BSA) and left to equilibrate for at least 15 min at 37° C. in 200 μL DMEM-F12 (5% BSA). Each well was treated with either 25 μL of either DMEM-F12 (5% BSA) or a 100 μM PMPA solution for blockade. Next, 25 μL of the ^68Ga/^18F-labeled PSMA inhibitor (5.0 nM) was added and the cells incubated at 37° C. for 60 min. The experiment was terminated by placing the 24-well plate on ice for 3 min and consecutive removal of the medium. Each well was rinsed with 250 μL HBSS and the fractions from these first two steps combined, representing the amount of free radioligand. Removal of surface bound activity was accomplished by incubation of the cells with 250 μL of ice-cold PMPA (10 μM in PBS) solution for 5 min and rinsed again with another 250 μL of ice-cold PBS. The internalized activity was determined by incubation of the cells in 250 μL 1 M NaOH and the combination with the fraction of a subsequent wash step with 250 μL 1.0 M NaOH. Each experiment (control and bloackde) was performed in triplicate. Free, surface bound and internalized activity was quantified in a γ-counter. […] Data were corrected for non-specific internalization and normalized to the specific-internalization observed for the radioiodinated reference compound.

[5] = Wängler et al., Bioconjug Chem. 2010; cited from earlier work
[6] = Octanol-water partition coefficient (n-octanol/PBS pH 7.4); assay type: physicochemical
Procedure: Approximately 1 MBq of the labeled tracer was dissolved in 1 mL of a 1:1 mixture (by volumes) of phosphate buffered saline (PBS, pH 7.4) and n-octanol in an Eppendorf tube. After vigorous mixing of the suspension for 3 minutes at room temperature, the vial was centrifuged at 15000 g for 3 minutes (Biofuge 15, Heraus Sepatech, Osterode, Germany) and 100 μL aliquots of both layers were measured in a gamma counter. The experiment was repeated at least six times.
Determianation of the logP values was carried out in phosphate buffered saline (PBS, pH 7.4) and n-octanol (=logPoct/PBS).

[7] = biological target: T1, HSA; conditions: literature value of human serum albumin binding (Yamazaki 2004); calibration reference; cited from earlier work
[8] = LNCaP cells, [125I]IB-KuE 0.2 nM, 1 h, 4 °C, HBSS+1% BSA, single measurements, read-out: individual IC50 measurements
[9] = LNCaP cells, [125I]IB-KuE 0.2 nM, 1 h, 4 °C, mean of the individual measurements, read-out: IC50 Mean
[10] = mean ± SD as quoted in the discussion

T1 sequence (P02768 25-609): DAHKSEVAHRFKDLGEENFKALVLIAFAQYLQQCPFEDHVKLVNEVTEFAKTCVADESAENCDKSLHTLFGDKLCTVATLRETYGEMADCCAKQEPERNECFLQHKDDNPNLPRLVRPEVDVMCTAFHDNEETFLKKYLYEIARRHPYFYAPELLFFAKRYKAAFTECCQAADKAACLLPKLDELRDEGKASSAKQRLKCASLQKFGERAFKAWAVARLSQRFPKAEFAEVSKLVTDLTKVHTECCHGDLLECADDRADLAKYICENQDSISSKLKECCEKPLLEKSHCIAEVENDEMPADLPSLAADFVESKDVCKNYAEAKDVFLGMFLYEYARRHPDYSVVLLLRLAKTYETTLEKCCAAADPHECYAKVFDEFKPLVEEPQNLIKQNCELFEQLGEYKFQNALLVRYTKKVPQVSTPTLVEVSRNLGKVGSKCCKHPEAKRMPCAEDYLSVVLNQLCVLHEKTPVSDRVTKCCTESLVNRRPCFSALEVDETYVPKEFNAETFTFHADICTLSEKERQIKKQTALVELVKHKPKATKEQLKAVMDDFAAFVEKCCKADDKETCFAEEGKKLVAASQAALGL
T2 sequence (Q04609 whole entry): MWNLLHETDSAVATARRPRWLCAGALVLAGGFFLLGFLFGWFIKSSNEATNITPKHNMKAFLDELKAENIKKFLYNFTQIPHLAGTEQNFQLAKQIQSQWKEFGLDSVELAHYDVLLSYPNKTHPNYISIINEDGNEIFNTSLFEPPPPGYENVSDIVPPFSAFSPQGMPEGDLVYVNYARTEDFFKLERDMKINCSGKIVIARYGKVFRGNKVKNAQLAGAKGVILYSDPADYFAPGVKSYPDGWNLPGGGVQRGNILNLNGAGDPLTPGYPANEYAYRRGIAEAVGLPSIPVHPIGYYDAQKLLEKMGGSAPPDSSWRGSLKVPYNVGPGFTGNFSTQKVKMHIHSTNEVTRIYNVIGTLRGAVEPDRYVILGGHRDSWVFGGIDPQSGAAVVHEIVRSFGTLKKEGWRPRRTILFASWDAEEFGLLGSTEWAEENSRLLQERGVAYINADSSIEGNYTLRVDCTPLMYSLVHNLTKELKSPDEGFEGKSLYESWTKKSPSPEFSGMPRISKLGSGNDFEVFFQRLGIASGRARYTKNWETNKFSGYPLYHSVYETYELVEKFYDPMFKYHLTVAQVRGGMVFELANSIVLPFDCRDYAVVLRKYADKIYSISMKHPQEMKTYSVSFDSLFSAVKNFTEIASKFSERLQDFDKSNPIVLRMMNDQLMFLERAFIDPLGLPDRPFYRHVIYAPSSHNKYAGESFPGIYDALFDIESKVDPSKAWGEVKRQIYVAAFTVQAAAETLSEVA

## CC(C)(C)[Si](F)(c1ccc(C(=O)NC[C@H](NC(=O)CC[C@@H](C(=O)O)N2CCN(CC(=O)O)CCN(CC(=O)O)CCN(CC(=O)O)CC2)C(=O)N[C@H](CCCCNC(=O)CCC(=O)NCCC[C@@H](NC(=O)CC[C@H](NC(=O)N[C@@H](CCC(=O)O)C(=O)O)C(=O)O)C(=O)O)C(=O)O)cc1)C(C)(C)C [rhPSMA7.4, [^19F][^natGa]L-Dap-S-DOTAGA-rhPSMA7, metal not drawn]
[1]
  HSA Binding: 96.6%
[2]; [8]
  IC50: 3.4 nM and 3.56 nM and 2.79 nM and 4.57 nM and 3.78 nM
[2]; [9]
  IC50: 3.62 nM
[3]
  Biodistribution adrenals: 3.57 ± 2.38 % ID/g
  Biodistribution blood: 1.15 ± 0.30 % ID/g
  Biodistribution bone: 0.62 ± 0.30 % ID/g
  Biodistribution heart: 0.71 ± 0.26 % ID/g
  Biodistribution intestine: 0.37 ± 0.09 % ID/g
  Biodistribution kidneys: 153 ± 80.3 % ID/g
  Biodistribution liver: 0.69 ± 0.20 % ID/g
  Biodistribution lung: 1.59 ± 0.61 % ID/g
  Biodistribution muscle: 0.31 ± 0.08 % ID/g
  Biodistribution pancreas: 0.50 ± 0.30 % ID/g
  Biodistribution spleen: 18.4 ± 9.77 % ID/g
  Biodistribution stomach: 0.25 ± 0.06 % ID/g
  Biodistribution tumor: 18.9 ± 3.27 % ID/g
[4]
  internalization rate Mean: 207.33 % of [^125I]IB-KuE
  individual internalization rates: 209.6 % of [^125I]IB-KuE and 202.6 % of [^125I]IB-KuE and 209.8 % of [^125I]IB-KuE
[4]; [10]
  internalization: 207.33±4.06%

## CC(C)(C)[Si](F)(c1ccc(C(=O)NC[C@@H](NC(=O)CC[C@H](C(=O)O)N2CCN(CC(=O)O)CCN(CC(=O)O)CCN(CC(=O)O)CC2)C(=O)N[C@H](CCCCNC(=O)CCC(=O)NCCC[C@@H](NC(=O)CC[C@H](NC(=O)N[C@@H](CCC(=O)O)C(=O)O)C(=O)O)C(=O)O)C(=O)O)cc1)C(C)(C)C [rhPSMA7.1, [^19F][^natGa]D-Dap-R-DOTAGA-rhPSMA7, metal not drawn]
[1]
  HSA Binding: 97.7%
[2]; [8]
  IC50: 5.04 nM and 7.11 nM and 8.31 nM and 4.97 nM and 6.44 nM and 8.74 nM and 6.91 nM and 7.27 nM
[2]; [9]
  IC50: 6.85 nM
[3]
  Biodistribution adrenals: 2.0 ± 0.25 % ID/g
  Biodistribution blood: 0.53 ± 0.13 % ID/g
  Biodistribution bone: 0.50 ± 0.31 % ID/g
  Biodistribution heart: 0.53 ± 0.03 % ID/g
  Biodistribution intestine: 0.30 ± 0.16 % ID/g
  Biodistribution kidneys: 220 ± 24.8 % ID/g
  Biodistribution liver: 0.75 ± 0.62 % ID/g
  Biodistribution lung: 1.1 ± 0.21 % ID/g
  Biodistribution muscle: 0.32 ± 0.30 % ID/g
  Biodistribution pancreas: 0.45 ± 0.12 % ID/g
  Biodistribution spleen: 20.0 ± 4.2 % ID/g
  Biodistribution stomach: 0.28 ± 0.17 % ID/g
  Biodistribution tumor: 14.1 ± 4.1 % ID/g
[4]
  internalization rate Mean: 69.55 % of [^125I]IB-KuE
  individual internalization rates: 77.5 % of [^125I]IB-KuE and 61.8 % of [^125I]IB-KuE and 70.6 % of [^125I]IB-KuE and 68.0 % of [^125I]IB-KuE and 67.9 % of [^125I]IB-KuE and 71.5 % of [^125I]IB-KuE
[4]; [10]
  internalization: 69.55%±5.29

## SIFA-Asn(AcNH-β-Glc)-PEG-Tyr^3-octreotate
[5]
  log P(ow): 0.96

## PSMA-1007 [reference compound]
[1]
  HSA Binding: 97.8%
[2]; other selected PSMA inhibitors, own lab, identical binding assay (Robu et al. 2018), read-out: IC50
  IC50: 4.2 ± 0.5 nM
[6]; octanol/PBS7.4, (n = 6)
  log P: −1.6
[4]; other selected PSMA inhibitors, own lab, identical assay (Robu et al. 2018)
  internalization: 118 ± 4 % of [^125I]IB-KuE

## Nc1ccccc1 [Aniline]
[1]
  Log K HSA: −0.79
[7]
  Lit. HSA %: 14.06%

## COc1ccc(Cl)cc1C(=O)NCCc1ccc(S(=O)(=O)NC(=O)NC2CCCCC2)cc1 [Glibenclamide]
[1]
  Log K HSA: 1.69
[7]
  Lit. HSA %: 99.00%

## O=C(O)c1ccccc1 [Benzoic Acid]
[7]
  Lit. HSA %: 34.27%

## O=[N+]([O-])c1ccc(O)cc1 [p-nitrophenol]
[7]
  Lit. HSA %: 77.65%

## CCCN(CCC)S(=O)(=O)c1ccc(C(=O)O)cc1 [Probenecid]
[7]
  Lit. HSA %: 95.00%

## CC(C)(C)[Si](F)(c1ccc(C(=O)NC[C@H](NC(=O)CC[C@H](C(=O)O)N2CCN(CC(=O)O)CCN(CC(=O)O)CCN(CC(=O)O)CC2)C(=O)N[C@H](CCCCNC(=O)CCC(=O)NCCC[C@@H](NC(=O)CC[C@H](NC(=O)N[C@@H](CCC(=O)O)C(=O)O)C(=O)O)C(=O)O)C(=O)O)cc1)C(C)(C)C [rhPSMA7.2, [^19F][^natGa]L-Dap-R-DOTAGA-rhPSMA7, metal not drawn]
[1]
  HSA Binding: 97.8%
[2]; [8]
  IC50: 2.64 nM and 2.76 nM and 3.94 nM and 5.8 nM and 4.31 nM and 4.32 nM and 3.17 nM and 2.97 nM and 3.36 nM
[2]; [9]
  IC50: 3.7 nM
[6]; octanol/PBS7.4, single measurements
  individual log P measurements: −3.00 and −3.02 and −3.06 and −3.45
[6]; pH 7.4, log P
  logP: -3.13 ± 0.22
[6]; pH 7.4, log P Mean
  logP: -3.13
[3]
  Biodistribution adrenals: 1.3 ± 0.8 % ID/g
  Biodistribution blood: 0.56 ± 0.20 % ID/g
  Biodistribution bone: 0.31 ± 0.24 % ID/g
  Biodistribution heart: 0.32 ± 0.13 % ID/g
  Biodistribution intestine: 0.18 ± 0.07 % ID/g
  Biodistribution kidneys: 87.6 ± 28.8 % ID/g
  Biodistribution liver: 0.35 ± 0.08 % ID/g
  Biodistribution lung: 0.89 ± 0.38 % ID/g
  Biodistribution muscle: 0.13 ± 0.07 % ID/g
  Biodistribution pancreas: 0.21 ± 0.08 % ID/g
  Biodistribution spleen: 10.1 ± 6.3 % ID/g
  Biodistribution stomach: 0.19 ± 0.08 % ID/g
  Biodistribution tumor: 6.5 ± 2.3 % ID/g
[4]
  internalization rate Mean: 191.83 % of [^125I]IB-KuE
  individual internalization rates: 192.3 % of [^125I]IB-KuE and 188.7 % of [^125I]IB-KuE and 182.7 % of [^125I]IB-KuE and 169.5 % of [^125I]IB-KuE and 205.3 % of [^125I]IB-KuE and 212.6 % of [^125I]IB-KuE
[4]; [10]
  internalization: 191.83%±15.54

## Oc1ccccc1 [Phenol]
[1]
  Log K HSA: −0.59
[7]
  Lit. HSA %: 20.69%

## SIFA-Asn(AcNH-β-Glc)-Tyr^3-octreotate
[5]
  log P(ow): 1.23

## O=C(O)CC[C@H](NC(=O)N[C@@H](CCCCNC(=O)c1ccc(F)nc1)C(=O)O)C(=O)O [DCFPyL]
[1]
  HSA Binding: 14.3%
